Results taken from patent publication US7829754B2, “Method of cleaning heavy metals-containing soil” (Chubu Electric Power Co., Inc., priority 2004, dated 2010).
Where two headings read alike, the source gives them in different places.

What was measured:
[1] = assay type: physicochemical
Protocol: <Experiment 1. Test of Comparing Lead Dissolving Out Ability of Chelating Agent>
In order to study a kind of a chelating agent to be added to a contaminated soil, the lead dissolving out abilities of 26 types of chelating agents (chelate reagents) were compared (FIG. 2).
2) Chelating agent: Each chelating agent of 100 mmol·dm^−3 and pH 5.8 was prepared.
3) Five grams of 1) the subject soil and 50 ml of 2) the chelating agent were put into to a 100 ml vessel, and shaken (200 times/min) at 20° C. for 6 hours. Repeated cycle was 3.
4) For comparison, a contrast section was prepared, in which desalted water was added instead of the chelating agent in the 3).
5) After shaking, the sample after filtration was centrifuged at 15000 rpm for 5 minutes, and the supernatant liquid was further centrifuged again under the same condition.
6) From the separated supernatant liquid, a lead concentration was measured with an inductively coupled high frequency plasma spectrometry (ICP) device.

Fagopyrum esculentum [2] = details: for Terrestrial lead accumulated amount, fold of EDTA-2Na at the same concentration / Terrestrial lead accumulated amount, fold of contrast section / Leaf dry weight / Stem dry weight / Stem lead concentration / Terrestrial dry weight / Terrestrial part lead accumulation amount / Terrestrial part lead concentration: soil B; for Leaf lead concentration: soil B (lead 13032 mg/kg), added one week before harvesting
Protocol: A lead concentration in a soil or a plant body was analyzed using ICP-AES (inductively coupled plasma-atomic emission spectrometry) regarding a sample obtained by adding nitric acid and degrading this with a microwave.
A cultivating experiment was conducted as follows: in which Fagopyrum esculentum and Brassica juncca were cultivated in a lead-containing soil filled in a Wagnel pot, a chelating agent was further added to the soil, and a difference in a lead accumulating amount depending on the cultivating condition was examined.
In addition, considering influence on plants and environment such as a salt concentration damage, 1, 5, 10 and 20 mmol kg^−1 soil of chemical reagents were adopted as an addition concentration, and 300 ml/pot (soil 3 kg) was provided as an addition amount.
1) Test plant: Fagopyrum esculentum, trade name (Milkyway), Brassica juncea
2) Test soil: Soil B (sampled from an old firing range site, soil lead concentration 13032 mg/kg), contrast sample (mountain sand in Gifu Prefecture of Japan, soil lead concentration 21 mg/kg)

Fagopyrum esculentum [3] = experiment: Fagopyrum esculentum growth situation after addition of chelating agent
Protocol: 3) The soil B (3 kg) and the contrast section soil (4.3 kg) which had been passed through a sieve (2 mm) were mixed with urea (N: 69 mg/kg soil), calcium superphosphate (P: 75 mg/kg soil), potassium chloride (K: 72 mg/kg soil), and magnesia lime (Mg: 67 mg/kg soil), and sufficiently stirred. 4) The test soil was filled into a Wagnel pot (1/5000a), and a plant was seeded (3 pits/pot, 3 grains/pit). 5) Four to five days after germination, the plant was thinned out to 3 individuals/pot. 6) Cultivation in a gross chamber (Environmental Condition) Temperature: 25° C.×12 h (8:00-20:00), 20° C.×12 h (20:00-8:00) Humidity: 60% Illumination: light condition (8:00-20:00), dark condition (20:00-8:00) Illuminance: 98001×, 180μ mmol˜m^−2·s^−1 7) Aspersion was performed at 100 ml/pot every day. 8) During a test term, a position of a pot was changed four times. 9) Individuals which were about to fall were induced by a support post. 10) One week before harvesting, a chelating agent at each concentration was added to the soil B. An addition amount was 300 ml/pot, and the chelating agent was carefully added to a surface of the soil so that the chelating agent was not contacted with the plant. On the day before addition of the chelating agent and on the day of addition, aspersion was not performed. […] 12) Repeated cycles in all sections were 3 (3 pots/test section).

[4] = chelating agent 100 mmol·dm^−3, pH 5.8, Soil A, shaken at 20° C. for 6 hours, FIG. 2
[5] = chelating agent 10 mmol/kg soil
[6] = chelating agent 20 mmol/kg soil
[7] = per unit area, calculated, chelating agent 1 mmol/kg soil
[8] = per unit area, calculated, chelating agent 5 mmol/kg soil
[9] = per unit area, calculated, chelating agent 10 mmol/kg soil
[10] = per unit area, calculated, chelating agent 20 mmol/kg soil
[11] = four days after addition, 1 mmol/kg soil
[12] = four days after addition, 5 mmol/kg soil
[13] = four days after addition, 10 mmol/kg soil
[14] = four days after addition, 20 mmol/kg soil
[15] = two days after addition, 20 mmol/kg soil

SMILES: CC(C(=O)[O-])N(CC(=O)[O-])CC(=O)[O-].[Na+].[Na+].[Na+] (stereo not shown) [MGDA · 3Na, trisodium methylglycine diacetate]
- lead dissolving out ability [1, 4]: high lead dissolving out ability
- Terrestrial lead accumulated amount, fold of EDTA-2Na at the same concentration (Fagopyrum esculentum [2]; 10 mmol/kg soil): 1.6 fold
- Terrestrial lead accumulated amount, fold of contrast section (Fagopyrum esculentum [2]; 10 mmol/kg soil): 3.4 fold
- Terrestrial lead accumulated amount, fold of EDTA-2Na at the same concentration (Fagopyrum esculentum [2]; 20 mmol/kg soil): 1.3 fold
- Terrestrial lead accumulated amount, fold of contrast section (Fagopyrum esculentum [2]; 20 mmol/kg soil): 3.7 fold
- addition effect on lead concentration in stems (Fagopyrum esculentum [2]; 10, 20 mmol/kg soil, contrast section 2043 mg/kg): high addition effect
- addition effect on lead concentration in leaves (Fagopyrum esculentum [2]; 10, 20 mmol/kg soil, contrast section 7971 mg/kg): high addition effect
- Leaf dry weight (Fagopyrum esculentum [2]; chelating agent 1 mmol/kg soil): 0.9422 g/plant
- Stem dry weight (Fagopyrum esculentum [2]; chelating agent 1 mmol/kg soil): 1.9496 g/plant
- Stem lead concentration (Fagopyrum esculentum [2]; chelating agent 1 mmol/kg soil): 2310 mg/kg
- Terrestrial dry weight (Fagopyrum esculentum [2]; chelating agent 1 mmol/kg soil): 2.8918 g/plant
- Terrestrial part lead accumulation amount (Fagopyrum esculentum [2]; chelating agent 1 mmol/kg soil): 0.0130 g/plant
- Terrestrial part lead concentration (Fagopyrum esculentum [2]; chelating agent 1 mmol/kg soil): 4484 mg/kg
- Leaf lead concentration (Fagopyrum esculentum [2]; chelating agent 1 mmol/kg soil): 8981 mg/kg
- Leaf dry weight (Fagopyrum esculentum [2]; chelating agent 5 mmol/kg soil): 0.8863 g/plant
- Stem dry weight (Fagopyrum esculentum [2]; chelating agent 5 mmol/kg soil): 1.8543 g/plant
- Stem lead concentration (Fagopyrum esculentum [2]; chelating agent 5 mmol/kg soil): 2384 mg/kg
- Terrestrial dry weight (Fagopyrum esculentum [2]; chelating agent 5 mmol/kg soil): 2.7406 g/plant
- Terrestrial part lead accumulation amount (Fagopyrum esculentum [2]; chelating agent 5 mmol/kg soil): 0.0156 g/plant
- Terrestrial part lead concentration (Fagopyrum esculentum [2]; chelating agent 5 mmol/kg soil): 5690 mg/kg
- Leaf lead concentration (Fagopyrum esculentum [2]; chelating agent 5 mmol/kg soil): 12607 mg/kg
- Leaf dry weight (Fagopyrum esculentum [2]; [5]): 0.7343 g/plant
- Stem dry weight (Fagopyrum esculentum [2]; [5]): 1.5023 g/plant
- Stem lead concentration (Fagopyrum esculentum [2]; [5]): 10098 mg/kg
- Terrestrial dry weight (Fagopyrum esculentum [2]; [5]): 2.2366 g/plant
- Terrestrial part lead accumulation amount (Fagopyrum esculentum [2]; [5]): 0.0399 g/plant
- Terrestrial part lead concentration (Fagopyrum esculentum [2]; [5]): 17858 mg/kg
- Leaf lead concentration (Fagopyrum esculentum [2]; [5]): 33735 mg/kg
- Leaf dry weight (Fagopyrum esculentum [2]; [6]): 0.5582 g/plant
- Stem dry weight (Fagopyrum esculentum [2]; [6]): 1.3716 g/plant
- Stem lead concentration (Fagopyrum esculentum [2]; [6]): 16437 mg/kg
- Terrestrial dry weight (Fagopyrum esculentum [2]; [6]): 1.9298 g/plant
- Terrestrial part lead accumulation amount (Fagopyrum esculentum [2]; [6]): 0.0441 g/plant
- Terrestrial part lead concentration (Fagopyrum esculentum [2]; [6]): 22848 mg/kg
- Leaf lead concentration (Fagopyrum esculentum [2]; [6]): 38601 mg/kg
- Terrestrial part lead accumulation amount (Fagopyrum esculentum [2]; [7]): 1.95 g/m^2
- Terrestrial part lead accumulation amount (Fagopyrum esculentum [2]; [8]): 2.34 g/m^2
- Terrestrial part lead accumulation amount (Fagopyrum esculentum [2]; [9]): 5.99 g/m^2
- Terrestrial part lead accumulation amount (Fagopyrum esculentum [2]; [10]): 6.62 g/m^2
- Discoloration of leaf (number of individuals for which symptom was observed) (Fagopyrum esculentum [3]; [11]): 3
- Leaf drop (number of individuals for which symptom was observed) (Fagopyrum esculentum [3]; [11]): 1
- Wilting of leaf (number of individuals for which symptom was observed) (Fagopyrum esculentum [3]; [11]): 1
- Discoloration of leaf (number of individuals for which symptom was observed) (Fagopyrum esculentum [3]; [12]): 3
- Wilting of leaf (number of individuals for which symptom was observed) (Fagopyrum esculentum [3]; [12]): 1
- Discoloration of flower (number of individuals for which symptom was observed) (Fagopyrum esculentum [3]; [13]): 5
- Discoloration of leaf (number of individuals for which symptom was observed) (Fagopyrum esculentum [3]; [13]): 2
- Leaf drop (number of individuals for which symptom was observed) (Fagopyrum esculentum [3]; [13]): 2
- Wilting of leaf (number of individuals for which symptom was observed) (Fagopyrum esculentum [3]; [13]): 6
- Discoloration of flower (number of individuals for which symptom was observed) (Fagopyrum esculentum [3]; [14]): 9
- Discoloration of leaf (number of individuals for which symptom was observed) (Fagopyrum esculentum [3]; [14]): 9
- Leaf drop (number of individuals for which symptom was observed) (Fagopyrum esculentum [3]; [14]): 7
- Wilting of leaf (number of individuals for which symptom was observed) (Fagopyrum esculentum [3]; [14]): 9
- yellow leaves, spotting and discoloration of leaves, and discoloration of a flower (Fagopyrum esculentum [3]; [14]): confirmed in all individuals
- leaf drop (Fagopyrum esculentum [3]; four days after addition, 20 mmol/kg soil, in words): observed in almost all individuals
- discoloration of leaves (Fagopyrum esculentum [3]; [15]): discoloration of leaves was observed
- leaf drop (Fagopyrum esculentum [3]; [15]): confirmed partially

SMILES: O=C([O-])CC(O)(CC(=O)[O-])C(=O)[O-].[Na+].[Na+].[Na+] [Sodium citrate, sodium citrate]
- lead dissolving out ability [1, 4]: not so much higher than the aforementioned biodegradable chelating agents
- lead dissolving out ability ([1]; pH 5.8): high lead dissolving out ability
- Leaf dry weight (Fagopyrum esculentum [2]; chelating agent 1 mmol/kg soil): 0.9090 g/plant
- Stem dry weight (Fagopyrum esculentum [2]; chelating agent 1 mmol/kg soil): 1.9892 g/plant
- Stem lead concentration (Fagopyrum esculentum [2]; chelating agent 1 mmol/kg soil): 1815 mg/kg
- Terrestrial dry weight (Fagopyrum esculentum [2]; chelating agent 1 mmol/kg soil): 2.8982 g/plant
- Terrestrial part lead accumulation amount (Fagopyrum esculentum [2]; chelating agent 1 mmol/kg soil): 0.0121 g/plant
- Terrestrial part lead concentration (Fagopyrum esculentum [2]; chelating agent 1 mmol/kg soil): 4169 mg/kg
- Leaf lead concentration (Fagopyrum esculentum [2]; chelating agent 1 mmol/kg soil): 9320 mg/kg
- Leaf dry weight (Fagopyrum esculentum [2]; chelating agent 5 mmol/kg soil): 1.0308 g/plant
- Stem dry weight (Fagopyrum esculentum [2]; chelating agent 5 mmol/kg soil): 1.6837 g/plant
- Stem lead concentration (Fagopyrum esculentum [2]; chelating agent 5 mmol/kg soil): 1671 mg/kg
- Terrestrial dry weight (Fagopyrum esculentum [2]; chelating agent 5 mmol/kg soil): 2.7145 g/plant
- Terrestrial part lead accumulation amount (Fagopyrum esculentum [2]; chelating agent 5 mmol/kg soil): 0.0101 g/plant
- Terrestrial part lead concentration (Fagopyrum esculentum [2]; chelating agent 5 mmol/kg soil): 3732 mg/kg
- Leaf lead concentration (Fagopyrum esculentum [2]; chelating agent 5 mmol/kg soil): 7099 mg/kg
- Leaf dry weight (Fagopyrum esculentum [2]; [5]): 0.7356 g/plant
- Stem dry weight (Fagopyrum esculentum [2]; [5]): 1.7669 g/plant
- Stem lead concentration (Fagopyrum esculentum [2]; [5]): 1524 mg/kg
- Terrestrial dry weight (Fagopyrum esculentum [2]; [5]): 2.5025 g/plant
- Terrestrial part lead accumulation amount (Fagopyrum esculentum [2]; [5]): 0.0080 g/plant
- Terrestrial part lead concentration (Fagopyrum esculentum [2]; [5]): 3191 mg/kg
- Leaf lead concentration (Fagopyrum esculentum [2]; [5]): 7195 mg/kg
- Leaf dry weight (Fagopyrum esculentum [2]; [6]): 0.8797 g/plant
- Stem dry weight (Fagopyrum esculentum [2]; [6]): 1.9099 g/plant
- Stem lead concentration (Fagopyrum esculentum [2]; [6]): 2286 mg/kg
- Terrestrial dry weight (Fagopyrum esculentum [2]; [6]): 2.7896 g/plant
- Terrestrial part lead accumulation amount (Fagopyrum esculentum [2]; [6]): 0.0134 g/plant
- Terrestrial part lead concentration (Fagopyrum esculentum [2]; [6]): 4806 mg/kg
- Leaf lead concentration (Fagopyrum esculentum [2]; [6]): 10270 mg/kg
- Terrestrial part lead accumulation amount (Fagopyrum esculentum [2]; [7]): 1.82 g/m^2
- Terrestrial part lead accumulation amount (Fagopyrum esculentum [2]; [8]): 1.52 g/m^2
- Terrestrial part lead accumulation amount (Fagopyrum esculentum [2]; [9]): 1.20 g/m^2
- Terrestrial part lead accumulation amount (Fagopyrum esculentum [2]; [10]): 2.01 g/m^2
- Discoloration of leaf (number of individuals for which symptom was observed) (Fagopyrum esculentum [3]; [11]): 5
- Discoloration of leaf (number of individuals for which symptom was observed) (Fagopyrum esculentum [3]; [12]): 2
- Discoloration of leaf (number of individuals for which symptom was observed) (Fagopyrum esculentum [3]; [13]): 4
- Leaf drop (number of individuals for which symptom was observed) (Fagopyrum esculentum [3]; [13]): 2
- Wilting of leaf (number of individuals for which symptom was observed) (Fagopyrum esculentum [3]; [13]): 4
- Discoloration of leaf (number of individuals for which symptom was observed) (Fagopyrum esculentum [3]; [14]): 5
- Wilting of leaf (number of individuals for which symptom was observed) (Fagopyrum esculentum [3]; [14]): 6
